# US20240408080A1, “PHARMACEUTICAL COMPOSITIONS OF CGRP INHIBITORS AND METHODS OF THEIR USE” (Pfizer Ireland Pharmaceuticals, priority 2021, published 2024)
# What was measured:
# [1] = pH-solubility profile (physical and chemical properties of drug substance); format: physicochemical; settings: mono-hydrochloride salt
# [2] = Phase 1 multiple ascending dose (MAD) study, intranasal, pharmacokinetics; format: in vivo, human; settings: for AUC: human
# Description: A Phase 1, single-center, randomized, double-blind, placebo-controlled, sequential multiple ascending dose (MAD) study with 2 alternate dosing arms was conducted. […] The MAD portion of the study consists of 4 cohorts, with a maximum dose of 20 mg administered once daily for up to 14 days in 3 cohorts, and 20 mg administered twice daily for up to 8 days in the fourth cohort.
# In addition to the 4 MAD cohorts, there were 2 alternate dosing cohorts, each consisting of 1 day dosing. The first alternate dosing cohort assessed the effect of 2 sequential administrations of 20 mg (20 mg spray [100 μL of 200 mg/mL] in alternate nostrils); with a 30 minute interval between administrations. A 2nd alternate dosing cohort assessed the effect of 2 sequential administrations of 20 mg (20 mg spray [100 μL of 200 mg/mL] in alternate nostrils); with a nose blow and 5 minute interval between administrations.
# The PK data were collected from subjects in Cohorts 1 to 4.
# [3] = test system: acute treatment of migraine; test: Phase 2/3 clinical trial BHV3500-201 (Study 201), efficacy of intranasal zavegepant versus placebo; format: in vivo, human; settings: for (2) Return to normal function at 2 hours posidose, Stratified Percentage Difference (Zavegepant − Placebo) / (7) Return to normal function at 60 minutes postdose, Stratified Percentage Difference (Zavegepant − Placebo) / (9) Return to normal function at 30 minutes postdose, Stratified Percentage Difference (Zavegepant − Placebo): subjects with functional disability at onset; for (9) Return to normal function at 30 minutes postdose, n/N (%): mITT subjects with functional disability at on-study migraine attack onset
# [4] = Phase 2/3 clinical trial BHV3500-201 (Study 201), safety, adverse events and liver function tests; format: in vivo, human
# [5] = pKa (physical and chemical properties of drug substance); format: physicochemical
# [6] = Zavegepant 5 mg Group vs placebo, CMH weighting, mITT subjects
# [7] = Zavegepant 5 mg Group vs placebo, CMH weighting
# [8] = Zavegepant 5 mg Group, intranasal single dose, mITT subjects
# [9] = Zavegepant 10 mg Group vs placebo, CMH weighting, mITT subjects
# [10] = Zavegepant 10 mg Group vs placebo, CMH weighting
# [11] = Zavegepant 10 mg Group, intranasal single dose, mITT subjects
# [12] = Zavegepant 20 mg Group vs placebo, CMH weighting, mITT subjects
# [13] = Zavegepant 20 mg Group vs placebo, CMH weighting
# [14] = Zavegepant 20 mg Group vs placebo, CMH weighting, subjects with symptom present at onset
structure (smiles),measurement,setting,value
"Cc1cc(C[C@@H](NC(=O)N2CCC(c3cc4ccccc4[nH]c3=O)CC2)C(=O)N2CCN(C3CCN(C)CC3)CC2)cc2cn[nH]c12 [Zavegepant, (R)-N-(3-(7-methyl-1H-indazol-5-yl)-1-(4-(1-methylpiperidin-4-yl)piperazin-1-yl)-1-oxopropan-2-yl)-4-(2-oxo-1,2-dihydroquinolin-3-yl)piperidine-1-carboxamide]",pH-solubility profile,[1]; at lower pH,> 300 mg/mL
same,pH-solubility profile,[1]; pH = 8.2,105 mg/mL
same,Plasma Concentrations (Mean),"[2]; 5 mg, Day 14, 0.500 h",8.08 ng/mL
same,AUC,"[2]; in vivo, 5 mg",19 ng·h/mL
same,AUC,"[2]; in vivo, 10 mg",30.9 ng·h/mL
same,AUC,"[2]; in vivo, 20 mg",87.9 ng·h/mL
same,urine concentrations,[2]; in vivo,below the limit of quantitation
same,"Freedom from MBS (Most Bothersome Symptom), 2 Hour Endpoint",[3]; 5 mg single dose,39.0%
same,"Pain Relief at 15 Minutes Post-Dose, n/N (value in brackets)","[3]; 15 mg (so in the source), Prophylactic migraine medication use: Yes",13/50 (24.0)
same,return to normal function,[3]; 20 mg,return to normal function as early as 30 minutes
same,onset of pain relief,"[3]; 5, 10, and 20 mg single dose, stratified CMH tests, mITT",pain relief as early as 15 minutes post-dose
same,co-primary endpoints of pain freedom and freedom from MBS at 2 hours versus placebo,[3]; 10 and 20 mg single dose,statistically superior (p<0.05) to placebo
same,"(1) Pain relief at 2 hours postdose, Stratified Percentage Difference (Zavegepant − Placebo)",[3]; [6],4.2%
same,"(3) Rescue medication use within 24 hours postdose, Stratified Percentage Difference (Zavegepant − Placebo)",[3]; [6],−2.4%
same,"(4) Photophobia freedom at 2 hours postdose, Stratified Percentage Difference (Zavegepant − Placebo)",[3]; [6],4.6%
same,"(6) Pain relief at 60 minutes postdose, Stratified Percentage Difference (Zavegepant − Placebo)",[3]; [6],5.1%
same,"(8) Pain relief at 30 minutes postdose, Stratified Percentage Difference (Zavegepant − Placebo)",[3]; [6],1.9%
same,"(10) Sustained pain relief from 2 to 24 hours postdose, Stratified Percentage Difference (Zavegepant − Placebo)",[3]; [6],8.0%
same,"(11) Sustained pain freedom from 2 to 24 hours postdose, Stratified Percentage Difference (Zavegepant − Placebo)",[3]; [6],5.3%
same,"(12) Sustained pain relief from 2 to 48 hours postdose, Stratified Percentage Difference (Zavegepant − Placebo)",[3]; [6],7.4%
same,"(13) Sustained pain freedom from 2 to 48 hours postdose, Stratified Percentage Difference (Zavegepant − Placebo)",[3]; [6],5.5%
same,"(2) Return to normal function at 2 hours posidose, Stratified Percentage Difference (Zavegepant − Placebo)",[3]; [7],4.3%
same,"(7) Return to normal function at 60 minutes postdose, Stratified Percentage Difference (Zavegepant − Placebo)",[3]; [7],5.5%
same,"(9) Return to normal function at 30 minutes postdose, Stratified Percentage Difference (Zavegepant − Placebo)",[3]; [7],3.4%
same,"(14) Nausca freedom at 2 hours postdose, Stratified Percentage Difference (Zavegepant − Placebo)","[3]; Zavegepant 5 mg Group vs placebo, CMH weighting, subjects with symptom present at onset",1.8%
same,"(4) Photophobia freedom at 2 hours postdose, n/N (%)",[3]; [8],118/337 (35.0) %
same,"(6) Pain relief at 60 minutes postdose, n/N (%)",[3]; [8],182/387 (47.0) %
same,"(9) Return to normal function at 30 minutes postdose, n/N (%)","[3]; Zavegepant 5 mg Group, intranasal single dose",32/363 (8.8) %
same,"(1) Pain relief at 2 hours postdose, Stratified Percentage Difference (Zavegepant − Placebo)",[3]; [9],7.1%
same,"(3) Rescue medication use within 24 hours postdose, Stratified Percentage Difference (Zavegepant − Placebo)",[3]; [9],−1.1%
same,"(4) Photophobia freedom at 2 hours postdose, Stratified Percentage Difference (Zavegepant − Placebo)",[3]; [9],5.1%
same,"(6) Pain relief at 60 minutes postdose, Stratified Percentage Difference (Zavegepant − Placebo)",[3]; [9],4.2%
same,"(8) Pain relief at 30 minutes postdose, Stratified Percentage Difference (Zavegepant − Placebo)",[3]; [9],5.3%
same,"(10) Sustained pain relief from 2 to 24 hours postdose, Stratified Percentage Difference (Zavegepant − Placebo)",[3]; [9],6.8%
same,"(11) Sustained pain freedom from 2 to 24 hours postdose, Stratified Percentage Difference (Zavegepant − Placebo)",[3]; [9],6.1%
same,"(12) Sustained pain relief from 2 to 48 hours postdose, Stratified Percentage Difference (Zavegepant − Placebo)",[3]; [9],7.0%
same,"(13) Sustained pain freedom from 2 to 48 hours postdose, Stratified Percentage Difference (Zavegepant − Placebo)",[3]; [9],6.3%
same,"(2) Return to normal function at 2 hours posidose, Stratified Percentage Difference (Zavegepant − Placebo)",[3]; [10],7.1%
same,"(7) Return to normal function at 60 minutes postdose, Stratified Percentage Difference (Zavegepant − Placebo)",[3]; [10],1.8%
same,"(9) Return to normal function at 30 minutes postdose, Stratified Percentage Difference (Zavegepant − Placebo)",[3]; [10],2.1%
same,"(15) Pain relapse from 2 to 48 hours postdose, Stratified Percentage Difference (Zavegepant − Placebo)","[3]; Zavegepant 10 mg Group vs placebo, CMH weighting, subjects with pain freedom at 2 hours postdose",−17.0%
same,"(14) Nausca freedom at 2 hours postdose, Stratified Percentage Difference (Zavegepant − Placebo)","[3]; Zavegepant 10 mg Group vs placebo, CMH weighting, subjects with symptom present at onset",2.9%
same,"(3) Rescue medication use within 24 hours postdose, n/N (%)",[3]; [11],101/388 (26.0) %
same,"(6) Pain relief at 60 minutes postdose, n/N (%)",[3]; [11],180/391 (46.0) %
same,"(9) Return to normal function at 30 minutes postdose, n/N (%)","[3]; Zavegepant 10 mg Group, intranasal single dose",27/354 (7.6) %
same,"(15) Pain relapse from 2 to 48 hours postdose, n/N (%)","[3]; Zavegepant 10 mg Group, intranasal single dose, mITT subjects with pain freedom at 2 hours postdose",29/88 (33.0) %
same,"(1) Pain relief at 2 hours postdose, Stratified Percentage Difference (Zavegepant − Placebo)",[3]; [12],7.5%
same,"(3) Rescue medication use within 24 hours postdose, Stratified Percentage Difference (Zavegepant − Placebo)",[3]; [12],−7.1%
same,"(4) Photophobia freedom at 2 hours postdose, Stratified Percentage Difference (Zavegepant − Placebo)",[3]; [12],7.4%
same,"(6) Pain relief at 60 minutes postdose, Stratified Percentage Difference (Zavegepant − Placebo)",[3]; [12],7.8%
same,"(8) Pain relief at 30 minutes postdose, Stratified Percentage Difference (Zavegepant − Placebo)",[3]; [12],1.9%
same,"(10) Sustained pain relief from 2 to 24 hours postdose, Stratified Percentage Difference (Zavegepant − Placebo)",[3]; [12],8.9%
same,"(11) Sustained pain freedom from 2 to 24 hours postdose, Stratified Percentage Difference (Zavegepant − Placebo)",[3]; [12],6.7%
same,"(12) Sustained pain relief from 2 to 48 hours postdose, Stratified Percentage Difference (Zavegepant − Placebo)",[3]; [12],6.2%
same,"(13) Sustained pain freedom from 2 to 48 hours postdose, Stratified Percentage Difference (Zavegepant − Placebo)",[3]; [12],5.7%
same,"(2) Return to normal function at 2 hours posidose, Stratified Percentage Difference (Zavegepant − Placebo)",[3]; [13],7.3%
same,"(7) Return to normal function at 60 minutes postdose, Stratified Percentage Difference (Zavegepant − Placebo)",[3]; [13],1.7%
same,"(9) Return to normal function at 30 minutes postdose, Stratified Percentage Difference (Zavegepant − Placebo)",[3]; [13],4.5%
same,"(5) Phonophobia freedom at 2 hours postdose, Stratified Percentage Difference (Zavegepant − Placebo)",[3]; [14],9.3%
same,"(14) Nausca freedom at 2 hours postdose, Stratified Percentage Difference (Zavegepant − Placebo)",[3]; [14],3.7%
same,"(9) Return to normal function at 30 minutes postdose, n/N (%)","[3]; Zavegepant 20 mg Group, intranasal single dose",37/372 (9.9) %
same,secondary endpoints demonstrating early activity versus placebo,[3]; nominal p<0.05,superior to placebo on multiple secondary endpoints
same,durability of benefits (sustained pain freedom and pain relief 2 to 24 and 2 to 48 hours),"[3]; nominal p<0.05, 5, 10 and 20 mg (pain relief 2 to 48 h: 5 and 10 mg)",durable and sustained without rescue medication out to 48 hours
same,ALT or AST > 3x ULN (subjects),[4]; 5 mg (N = 388),0
same,Bilirubin > 2x ULN (subjects),[4]; 5 mg (N = 388),0
same,ALT or AST > 3x ULN (subjects),[4]; 10 mg (N = 394),0
same,Bilirubin > 2x ULN (subjects),[4]; 10 mg (N = 394),0
same,ALT or AST > 3x ULN (subjects),[4]; 20 mg (N = 403),0
same,Bilirubin > 2x ULN (subjects),[4]; 20 mg (N = 403),0
same,ALT or AST > 3x ULN (subjects),[4]; All zavegepant (N = 1185),0
same,Bilirubin > 2x ULN (subjects),[4]; All zavegepant (N = 1185),0
same,"hepatotoxicity signal (AST or ALT>3× ULN, total bilirubin>2× ULN)",[4]; any treatment arm,no signal of hepatoxicity
same,tolerability and safety,"[4]; intranasal, single dose trial",well tolerated and safe
same,AEs mild in intensity,[4]; single dose trial,> 80%
same,pKa (second value),[5],8.8
